Laboratory results as given in US20260102407A1, “TREATMENT METHODS” (priority 2020, published 2026).

Tests used:
HMEC-1 = experiment: Endothelial proliferation assay using the Countess system with Trypan Blue exclusion; type: cell-based, human; conditions: 5% FBS, 0.1-0.6 μM, 24 h
Description: Endothelial proliferation assay using the Countess system. HMEC-1 proliferation was assessed using a Countess II Automated Cell Counter (ThermoFisher Scientific). Briefly, HMEC-1 (3×10^5 cells/well) were seeded in a 12-well plate. Cells were serum-deprived for 24 h in MCDB131 medium which contained 10 ng/ml EGF and 1 μg/ml hydrocortisone then treated with compound (0.1-0.6 μM) in medium containing 5% FBS, 10 ng/ml EGF and 1 μg/ml hydrocortisone. The cells were trypsinized after 24 h, resuspended in complete medium, a 10 μl aliquot was combined with an equal volume of […], and total cell numbers and Trypan Blue-excluding cells as a proportion of total was determined using the Countess.

c-Fos = experiment: Western blot, serum-inducible c-Fos expression in HMEC-1; type: cell-based, human; conditions: 30 μM compound, 10% FBS 1 h
Description: Western blot analysis with extracts of cells treated with serum. HMEC-1 (80-90% confluency) were arrested in serum-free MCDB131 medium without EGF or hydrocortisone for 20 h. Cells were treated with 30 μM compound in serum-free MCDB131 medium for 4 h, and the medium was changed to complete medium (with 10% FBS with EGF and hydrocortisone) with 30 μM compound for 1 h. Total protein was harvested as previously described in radioimmunoprecipitation (RIPA) lysis buffer with protease inhibitors (Li, Y., et al., Int J Cardiol 220, 185-191 (2016)). Proteins were resolved on 4-20% (w/v) sodium dodecyl sulfate (SDS)-polyacrylamide gradient gels (Bio-Rad Mini-PROTEAN TGX) and transferred to Immobilon-P PVDF membranes (Millipore, USA). Membranes were blocked with 5% skim milk and incubated with rabbit monoclonal FosB (cat. 2251, 1:1000, Cell Signaling, USA), rabbit monoclonal c-Fos antibodies (cat. 2250, 1:1000, Cell Signaling, USA) at 4° C. overnight or mouse monoclonal […] antibodies (cat. A5316, 1:30000, Sigma-Aldrich) at 22° C. for 15 min then incubated with a horseradish peroxidase conjugated secondary goat anti-rabbit (cat. P0448, 1:1000, DAKO Cytomation, Denmark) or goat anti-mouse (cat. P0447, 1:1000, DAKO Cytomation, Denmark) antibodies for 1 h. Chemiluminescence was detected using the Western Lightning Chemiluminescence system (PerkinElmer, USA) and ImageQuant™ LAS 4000 biomolecular imager (GE Healthcare Life Sciences, USA). Band intensity in images generated with the LAS 4000 on automatic exposure with sensitivity/resolution setting high was quantified using NIH ImageJ.

pERK = experiment: Immunohistochemical staining of rat retina, pERK; type: in vivo; conditions: lasered rat retinas
Source text: Rat choroidal laser injury model. Male Brown Norway pigmented rats (8-14 week-old) were anesthetized by an intramuscular injection of Rompun® (xylazine)/Imalgene® (ketamine). Pupils were dilated by instillation of one drop of 0.5% tropicamide before laser burn. Six burns were created in both eyes on Day 0 by applying 170 mW of 532 nm laser light (Viridis laser, Quantel, France) on 75 μm spots around the optic nerve, between the main retinal vessel branches, for 0.1s, through the slit lamp and contact lens. Production of a bubble at the time of laser application confirmed the rupture of Bruch's membrane. […] After anaesthesia, 10% sodium fluorescein (250 μl/100 g body weight) was injected subcutaneously, and ocular fluorescence was recorded 10 min after dye injection. Fluorescein leakage was evaluated on Days 14 and 21 in the angiograms by two examiners masked to the study groups and graded for fluorescein intensity as follows: score 0: no leakage; 1: slightly stained; 2: moderately stained; 3: strongly stained.
Immunohistochemical staining of rat retina. […] IOD of positive staining (red chromogen) was assessed for CD31, VEGF-A165, pERK, FosB and VCAM-1 using Image-Pro Plus software (Cybernetics, Bethesda, MD). IOD in IPL and INL was quantified for CD31; OPL to OS for VEGF-A165; INL to ONL for pERK; GCL to OS for FosB; OLM for VCAM-1, using Image-Pro Plus. […]

What does the source list for `CCOC(=O)Nc1ccc2c(c1)C(=O)N(CC)c1ccccc1O2` [BT2, (10-ethyl-11-oxo-10,11-dihydro-dibenzo[b,f][1,4]oxazepin-2-yl)-carbamic acid ethyl ester]?
Trypan Blue incorporation (% living cells) (HMEC-1): without affecting Trypan Blue incorporation; serum-inducible proliferation, total cell numbers (Countess) (HMEC-1): inhibited serum-inducible proliferation; serum-inducible c-Fos expression (Western blot) (c-Fos): blocked the inducible expression of c-Fos; inducible pERK staining in the INL, OPL and ONL (pERK): suppressed inducible pERK staining
